Source: patent publication US6130239A, “4-Alkenyl- and 4-alkynyloxindoles” (Hoffmann-La Roche Inc., priority 1999, dated 2000)
Counter-ions that a name gives are not always drawn.

Target: T1, Cyclin E/CDK2 (Homo sapiens, UniProt P24941)
T1 construct: made in house; host or cells: insect cells
Experiment: CDK2 FlashPlate Assay (inhibition of Rb phosphorylation by Cyclin E/CDK2)
Assay type: biochemical
Settings: for IC50: Table IA, recombinant human Cyclin E/CDK2, Rb substrate, 25 minutes room temperature; for inhibition at 1 µM: Table IB, concentration ≤1.0 μM

Structure (SMILES) | IC50 [µM] | inhibition at 1 µM [%]
COc1cc[nH]c1/C=C1\C(=O)Nc2cccc(C#CCNCc3ccccc3)c21 [KK, (Z)-1,3-Dihydro-3-[(3-methoxy-1H-pyrrol-2-yl)methylene]-4-[3-(N-phenylmethylamino)-1-propynyl]-2H-indol-2-one] | < 4 | 
COc1cc[nH]c1/C=C1\C(=O)Nc2ccc(NC(=O)Cc3cccs3)c(C#CCCC(=O)O)c21 [HH, (Z)-5-[2,3-Dihydro-3-[(3-methoxy-1H-pyrrol-2-yl)methylene]-2-oxo-5-[(2-thienylacetyl)amino]-1H-indol-4-yl]-4-pentynoic acid] | < 4 | 
CNC(=O)OCC#Cc1cccc2c1/C(=C/c1[nH]ccc1OC)C(=O)N2 [NN, (Z)-N-Methylcarbamic acid 3-[2,3-dihydro-3-[(3-methoxy-1H-pyrrol-2-yl)methylene]-2-oxo-1H-indol-4-yl]-2-propynyl ester] | < 4 | 
COc1cc[nH]c1/C=C1\C(=O)Nc2cccc(C#CCCCCO)c21 [A, (Z)-1,3-Dihydro-4-(6-hydroxy-1-hexynyl)-3-[(3-methoxy-1H-pyrrol-2-yl)methylene]-2H-indol-2-one] | < 4 | 
COc1cc[nH]c1/C=C1\C(=O)Nc2cccc(C#CCOC(N)=O)c21 [MM, (Z)-Carbamic acid 3-[2,3-dihydro-3-[(3-methoxy-1H-pyrrol-2-yl)methylene]-2-oxo-1H-indol-4-yl]-2-propynyl ester] | < 4 | 
CCCCC[C@H](O)C#Cc1cccc2c1/C(=C/c1[nH]ccc1OC)C(=O)N2 [U, (S)-(Z)-1,3-Dihydro-4-(3-hydroxy-1-octynyl)-3-[(3-methoxy-1H-pyrrol-2-yl)methylene]-2H-indol-2-one] | < 4 | 
COC(=O)CCC#Cc1cccc2c1/C(=C/c1[nH]ccc1OC)C(=O)N2 [F, (Z)-5-[2,3-Dihydro-3-[(3-methoxy-1H-pyrrol-2-yl)methylene]-2-oxo-1H-indol-4-yl]-4-pentynoic acid methyl ester] | < 4 | 
COc1cc[nH]c1/C=C1\C(=O)Nc2cccc(C#CC3(O)CCCC3)c21 [AA, (Z)-1,3-Dihydro-4-[(1-hydroxycyclopentyl)ethynyl]-3-[(3-methoxy-1H-pyrrol-2-yl)methylene]-2H-indol-2-one] | < 4 | 
CCC(C)(O)C#Cc1cccc2c1/C(=C/c1[nH]ccc1OC)C(=O)N2 (racemic) [D, rac-(Z)-1,3-Dihydro-4-(3-hydroxy-3-methyl-1-pentynyl)-3-[(3-methoxy-1H-pyrrol-2-yl)methylene]-2H-indol-2-one] | < 4 | 
C#CCOCCO [Example 21, 3-(2-Hydroxyethoxy)-1-propyne] | < 4 | 
COc1cc[nH]c1/C=C1\C(=O)Nc2cccc(C#CC3(O)CCCCC3)c21 [M, (Z)-1,3-Dihydro-4-[(1-hydroxycyclohexyl)ethynyl]-3-[(3-methoxy-1H-pyrrol-2-yl)methylene]-2H-indol-2-one] | < 4 | 
COc1cc[nH]c1/C=C1\C(=O)Nc2ccc(NC(=O)c3ccncc3)c(C#CCO)c21 [DD, (Z)-N-[2,3-Dihydro-4-(3-hydroxy-1-propynyl)-3-[(3-methoxy-1H-pyrrol-2-yl)methylene]-2-oxo-1H-indol-5-yl]-4-pyridinecarboxamide] | < 4 | 
Cc1nc[nH]c1/C=C1\C(=O)Nc2ccc(F)c(C#CCNC(N)=O)c21 [ZZ, (Z)-[3-[5-fluoro-2,3-dihydro-3-[(4-methyl-1H-imidazol-5-yl)methylene]-2-oxo-1H-indol-4-yl]-2-propynyl]urea] | < 4 | 
COC(=O)C(CC#Cc1cccc2c1/C(=C/c1[nH]ccc1OC)C(=O)N2)C(=O)OC [V, (Z)-[3-[2,3-Dihydro-3-[(3-methoxy-1H-pyrrol-2-yl)methylene]-2-oxo-1H-indol-4-yl]-2-propynyl]propanedioic acid dimethyl ester] | < 4 | 
CNCC#Cc1cccc2c1/C(=C/c1[nH]ccc1OC)C(=O)N2 [JJ, (Z)-1,3-Dihydro-3-[(3-methoxy-1H-pyrrol-2-yl)methylene]-4-[3-(N-methylamino)-1-propynyl]-2H-indol-2-one trifluoroacetate salt] | < 4 | 
COC(=O)CCC#Cc1c(N)ccc2c1/C(=C/c1[nH]ccc1OC)C(=O)N2 [FF, (Z)-5-[5-Amino-2,3-dihydro-3-[(3-methoxy-1H-pyrrol-2-yl)methylene]-2-oxo-1H-indol-4-yl]-4-pentynoic acid methyl ester] | < 4 | 
COc1cc[nH]c1/C=C1\C(=O)Nc2cccc(C#CC(C)(O)CC(C)C)c21 (racemic) [O, rac-(Z)-1,3-Dihydro-4-(3,5-dimethyl-3-hydroxy-1-hexynyl)-3-[(3-methoxy-1H-pyrrol-2-yl)methylene]-2H-indol-2-one] | < 4 | 
COC(=O)NCC#Cc1cccc2c1/C(=C/c1[nH]ccc1OC)C(=O)N2 [LL, (Z)-[3-[2,3-Dihydro-3-[(3-methoxy-1H-pyrrol-2-yl)methylene]-2-oxo-1H-indol-4-yl]-2-propynyl]carbamic acid methyl ester] | < 4 | 

Structure (SMILES) | IC50 [µM] | inhibition at 1 µM [%]
COc1cc[nH]c1/C=C1\C(=O)Nc2cccc(C#CCCC(N)=O)c21 [J, (Z)-5-[2,3-Dihydro-3-[(3-methoxy-1H-pyrrol-2-yl)methylene]-2-oxo-1H-indol-4-yl]-4-pentynamide] | < 4 | 
COc1cc[nH]c1/C=C1\C(=O)Nc2cccc(C#CC(C)(C)O)c21 [L, (Z)-1,3-Dihydro-4-(3-hydroxy-3-methyl-1-butynyl)-3-[(3-methoxy-1H-pyrrol-2-yl)methylene]-2H-indol-2-one] | < 4 | 
COc1cc[nH]c1/C=C1\C(=O)Nc2cccc(C#CCCO)c21 [C, (Z)-1,3-Dihydro-4-(4-hydroxy-1-butynyl)-3-[(3-methoxy-1H-pyrrol-2-yl)methylene]-2H-indol-2-one] | < 4 | 
CCCCCC(O)C#Cc1cccc2c1/C(=C/c1[nH]ccc1OC)C(=O)N2 (racemic) [Q, rac-(Z)-1,3-Dihydro-4-(3-hydroxy-1-octynyl)-3-[(3-methoxy-1H-pyrrol-2-yl)methylene]-2H-indol-2-one] | < 4 | 
COc1cc[nH]c1/C=C1\C(=O)Nc2cccc(C#CCC(C(=O)O)C(=O)O)c21 [W, (Z)-[3-[2,3-Dihydro-3-[(3-methoxy-1H-pyrrol-2-yl)methylene]-2-oxo-1H-indol-4-yl]-2-propynyl]propanedioic acid] | < 4 | 
COC(=O)CCC#Cc1c([N+](=O)[O-])ccc2c1/C(=C/c1[nH]ccc1OC)C(=O)N2 [EE, (Z)-5-[2,3-Dihydro-3-[(3-methoxy-1H-pyrrol-2-yl)methylene]-5-nitro-2-oxo-1H-indol-4-yl]-4-pentynoic acid methyl ester] |  | > 60
COc1cc[nH]c1/C=C1\C(=O)Nc2ccc([N+](=O)[O-])c(C#CCO)c21 [Z, (Z)-1,3-Dihydro-4-(3-hydroxy-1-propynyl)-3-[(3-methoxy-1H-pyrrol-2-yl)methylene]-5-nitro-2H-indol-2-one] |  | > 90
CCC(O)C#Cc1cccc2c1/C(=C/c1[nH]ccc1OC)C(=O)N2 (racemic) [R, rac-(Z)-1,3-Dihydro-4-(3-hydroxy-1-pentynyl)-3-[(3-methoxy-1H-pyrrol-2-yl)methylene]-2H-indol-2-one] | < 4 | 
COCC#Cc1cccc2c1/C(=C/c1[nH]ccc1OC)C(=O)N2 [X, (Z)-1,3-Dihydro-4-(3-methoxy-1-propynyl)-3-[(3-methoxy-1H-pyrrol-2-yl)methylene]-2H-indol-2-one] | < 4 | 
COc1cc[nH]c1/C=C1\C(=O)Nc2cccc(C#CCCC(=O)O)c21 [H, (Z)-5-[2,3-Dihydro-3-[(3-methoxy-1H-pyrrol-2-yl)methylene]-2-oxo-1H-indol-4-yl]-4-pentynoic acid] | < 4 | 
COc1cc[nH]c1/C=C1\C(=O)Nc2cccc(C#CCCCO)c21 [Compound B, (Z)-1,3-Dihydro-4-(5-hydroxy-1-pentynyl)-3-[(3-methoxy-1H-pyrrol-2-yl)methylene]-2H-indol-2-one] | < 4 | 
COc1cc[nH]c1/C=C1\C(=O)Nc2cccc(C#CCCCC(N)=O)c21 [K, (Z)-6-[2,3-Dihydro-3-[(3-methoxy-1H-pyrrol-2-yl)methylene]-2-oxo-1H-indol-4-yl]-5-hexynamide] | < 4 | 
COC(=O)CCCC#Cc1cccc2c1/C(=C/c1[nH]ccc1OC)C(=O)N2 [E, (Z)-6-[2,3-Dihydro-3-[(3-methoxy-1H-pyrrol-2-yl)methylene]-2-oxo-1H-indol-4-yl]-5-hexynoic acid methyl ester] | < 4 | 
COc1cc[nH]c1/C=C1\C(=O)Nc2cccc(C#CCN)c21 [II, (Z)-4-(3-Amino-1-propynyl)-1,3-dihydro-3-[(3-methoxy-1H-pyrrol-2-yl)methylene]-2H-indol-2-one trifluoroacetate salt] | < 4 | 
COc1cc[nH]c1/C=C1\C(=O)Nc2ccc(N)c(C#CCO)c21 [Compound BB, (Z)-5-Amino-1,3-dihydro-4-(3-hydroxy-1-propynyl)-3-[(3-methoxy-1H-pyrrol-2-yl)methylene]-2H-indol-2-one] | < 4 | 
COc1cc[nH]c1/C=C1\C(=O)Nc2cccc(C#CCO)c21 [Y, (Z)-1,3-Dihydro-4-(3-hydroxy-1-propynyl)-3-[(3-methoxy-1H-pyrrol-2-yl)methylene]-2H-indol-2-one] | < 4 | 
CCCC(C)(O)C#Cc1cccc2c1/C(=C/c1[nH]ccc1OC)C(=O)N2 (racemic) [N, rac-(Z)-1,3-Dihydro-4-(3-hydroxy-3-methyl-1-hexynyl)-3-[(3-methoxy-1H-pyrrol-2-yl)methylene]-2H-indol-2-one] | < 4 | 
COc1cc[nH]c1/C=C1\C(=O)Nc2cccc(C#CCCCC(=O)O)c21 [G, (Z)-6-[2,3-Dihydro-3-[(3-methoxy-1H-pyrrol-2-yl)methylene]-2-oxo-1H-indol-4-yl]-5-hexynoic acid] | < 4 | 
